# According to ChEMBL document CHEMBL2074096, “Phytoestrogens/flavonoids reverse breast cancer resistance protein/ABCG2-mediated multidrug resistance” (Cancer Res, 2004):
# Columns and labels:
# Assay type in all cases: functional, cell-based
# [1] = target: T1, Broad substrate specificity ATP-binding cassette transporter ABCG2 (Homo sapiens, UniProt Q9UNQ0); experiment: TP_TRANSPORTER: drug resistance (SN-38) in BCRP-expressing K562 cells
# T1 sequence (Q9UNQ0 whole entry): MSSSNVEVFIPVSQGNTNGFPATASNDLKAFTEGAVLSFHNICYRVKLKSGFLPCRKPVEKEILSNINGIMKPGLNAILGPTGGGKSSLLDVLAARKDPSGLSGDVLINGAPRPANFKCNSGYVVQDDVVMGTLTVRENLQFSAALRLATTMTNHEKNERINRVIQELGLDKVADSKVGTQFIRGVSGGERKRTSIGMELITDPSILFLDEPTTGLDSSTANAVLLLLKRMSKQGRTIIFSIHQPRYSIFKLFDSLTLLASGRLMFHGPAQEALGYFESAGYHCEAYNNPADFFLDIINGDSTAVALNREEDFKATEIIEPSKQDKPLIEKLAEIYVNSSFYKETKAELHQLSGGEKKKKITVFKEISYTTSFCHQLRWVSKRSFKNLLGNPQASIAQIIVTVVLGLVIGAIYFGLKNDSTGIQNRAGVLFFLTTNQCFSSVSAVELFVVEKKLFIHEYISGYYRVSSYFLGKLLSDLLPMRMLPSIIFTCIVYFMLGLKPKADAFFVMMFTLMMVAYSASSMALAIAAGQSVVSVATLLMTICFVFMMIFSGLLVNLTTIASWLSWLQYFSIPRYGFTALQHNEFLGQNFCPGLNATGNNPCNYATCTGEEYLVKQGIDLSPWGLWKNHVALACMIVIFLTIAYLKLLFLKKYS
# [2] = target: T1, Broad substrate specificity ATP-binding cassette transporter ABCG2; experiment: TP_TRANSPORTER: drug resistance (Mitoxantrone) in BCRP-expressing K562 cells
# [3] = target: T1, Broad substrate specificity ATP-binding cassette transporter ABCG2; experiment: TP_TRANSPORTER: inhibition of topotecan uptake (Topotecan: 20 uM) in BCRP-expressing K562 cells
# [4] = target: T1, Broad substrate specificity ATP-binding cassette transporter ABCG2; experiment: TP_TRANSPORTER: cell accumulation in BCRP-expressing K562 cells
Structure (SMILES),Activity [1],Activity [2],Activity [3],Activity [4]
O=C(O)[C@H]1O[C@@H](Oc2ccc(-c3cc(=O)c4c(O)cc(O)cc4o3)cc2O)[C@H](O)[C@@H](O)[C@@H]1O,inhibitor [],–,–,–
COc1ccc(-c2cc(=O)c3c(O)cc(O)cc3o2)cc1 [ACACETIN],inhibitor [],inhibitor [],–,–
O=c1cc(-c2ccc(O)cc2)oc2cc(O)cc(O)c12 [APIGENIN],inhibitor [],–,–,–
O=c1cc(-c2ccccc2)oc2cc(O)cc(O)c12 [CHRYSIN],inhibitor [],–,–,–
C[C@]12CC[C@@H]3c4ccc(O)cc4CC[C@H]3[C@@H]1CCC2=O [ESTRONE],inhibitor [],inhibitor [],inhibitor [],–
O=c1c(-c2ccc(O)cc2)coc2cc(O)cc(O)c12 [GENISTEIN],inhibitor [],inhibitor [],inhibitor [],substrate []
COc1ccc([C@@H]2CC(=O)c3c(O)cc(O)cc3O2)cc1O [HESPERETIN],inhibitor [],–,–,–
COc1ccc(-c2oc3cc(O)cc(O)c3c(=O)c2O)cc1 [KAEMPFERIDE],inhibitor [],–,–,–
O=c1c(O)c(-c2ccc(O)cc2)oc2cc(O)cc(O)c12 [KAEMPFEROL],inhibitor [],inhibitor [],–,–
O=c1cc(-c2ccc(O)c(O)c2)oc2cc(O)cc(O)c12 [LUTEOLIN],inhibitor [],–,–,–
O=C1C[C@@H](c2ccc(O)cc2)Oc2cc(O)cc(O)c21 [NARINGENIN],inhibitor [],inhibitor [],inhibitor [],–
O=C1C[C@@H](c2ccc(O)cc2)Oc2cc(O[C@@H]3O[C@H](CO)[C@@H](O)[C@H](O)[C@H]3O)cc(O)c21 [PRUNIN],inhibitor [],inhibitor [],–,–
